# Test results from PubChem BioAssay (NCI).
#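 Following 48 hours of exposure in 96-well plates, responses at five concentrations were used to interpolate endpoints linearly. Here, GI50 denotes the concentration required for 50% inhibition of growth. TGI is the concentration that stops growth completely.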
# Key:
# Assay in all cases: growth of human tumour cells (NCI), 48 h
# [1] = test system: CAKI-1 renal
# [2] = test system: HCT-15 colon
# [3] = test system: SK-OV-3 ovarian
# [4] = test system: UO-31 renal
# [5] = test system: OVCAR-8 ovarian
# [6] = test system: SNB-19 CNS
# [7] = test system: UACC-62 melanoma
# [8] = test system: HOP-62 NSCLC
# [9] = test system: A498 renal
# [10] = test system: MCF7 breast
Compound,TGI [1],TGI [2],TGI [3],TGI [4],TGI [5],TGI [6],TGI [7],TGI [8],TGI [9],TGI [10],GI50 [1],GI50 [2],GI50 [3],GI50 [4],GI50 [5],GI50 [6],GI50 [7],GI50 [8],GI50 [9],GI50 [10]
COc1c(-c2ccc(O)c(O)c2)oc2c(O)c(O)cc(O)c2c1=O,> 100 µM,> 100 µM,> 100 µM,> 100 µM,> 100 µM,> 100 µM,> 100 µM,67.4 µM,> 100 µM,76.1 µM,,,,,,,,,,
CCN(CC)CCN(Cc1ccc(F)cc1)c1ccc(CO)c(Cl)c1,17.3 µM,> 100 µM,13.6 µM,95.1 µM,75.4 µM,> 100 µM,20.8 µM,63.3 µM,3.18 µM,85.5 µM,1.85 µM,12.7 µM,2.96 µM,19.5 µM,5.37 µM,> 100 µM,6.07 µM,9.84 µM,1.55 µM,4.55 µM
C=C(CC(=O)O)C(=O)O (tested in a mixture with another compound),> 50 µg/mL,> 50 µg/mL,> 50 µg/mL,> 50 µg/mL,> 50 µg/mL,> 50 µg/mL,> 50 µg/mL,> 50 µg/mL,> 50 µg/mL,> 50 µg/mL,> 50 µg/mL,> 50 µg/mL,> 50 µg/mL,> 50 µg/mL,> 50 µg/mL,> 50 µg/mL,> 50 µg/mL,> 50 µg/mL,> 50 µg/mL,> 50 µg/mL
CC1(C)C(=O)/C=C\C(=O)C(C)(C)C(=O)/C=C\C(=O)C(C)(C)C(=O)/C=C\C(=O)C(C)(C)C(=O)/C=C\C1=O,31.2 µM,61.5 µM,> 96.1 µM,56 µM,74.5 µM,> 71.1 µM,56.3 µM,> 100 µM,> 100 µM,> 100 µM,,,,,,,,,,
Cc1ccc(C(SCC(N)C(=O)O)(c2ccccc2)c2ccccc2)cc1 (stereo unspecified),> 100 µM,> 49.4 µM,> 94.7 µM,> 100 µM,> 100 µM,> 100 µM,> 59.4 µM,> 49.7 µM,> 64.7 µM,> 79.1 µM,0.151 µM,0.218 µM,0.0748 µM,13.8 µM,0.139 µM,0.125 µM,0.0561 µM,0.18 µM,1.02 µM,0.0324 µM
COc1cccc2c1C(=O)c1c(O)c3c(c(O)c1C2=O)C[C@@](O)(C(=O)CO)CC3OC1CC(O)C(O)C(C)O1 (stereo partly specified),12.1 µM,5.89 µM,7.29 µM,2.41 µM,9.78 µM,2.93 µM,0.492 µM,0.217 µM,1.29 µM,21.6 µM,,,,,,,,,,
COC1C(OC(=O)/C=C/C=C/C=C/C=C\C(=O)O)CCC2(CO2)C1C1(C)OC1CC=C(C)C (stereo unspecified),> 200 µM,> 200 µM,> 200 µM,> 200 µM,,> 200 µM,> 200 µM,> 200 µM,> 200 µM,> 200 µM,> 200 µM,> 200 µM,> 200 µM,> 200 µM,,> 200 µM,> 200 µM,> 200 µM,> 200 µM,> 200 µM
Cn1c2ccccc2c2c3[nH][nH]c(=O)c3c3c4ccccc4[nH]c3c21,> 100 µM,35.7 µM,64.8 µM,24.3 µM,28 µM,> 100 µM,5.81 µM,10.4 µM,5.79 µM,10.4 µM,2.22 µM,2.47 µM,3.46 µM,2.68 µM,2.9 µM,3.05 µM,2.07 µM,3.11 µM,1.61 µM,1.63 µM
CCCCN(CCCC)CCC(O)c1cc2c(Cl)cc(Cl)cc2c2cc(C(F)(F)F)ccc12 (stereo unspecified),29.3 µM,19.1 µM,26.9 µM,17.4 µM,27.5 µM,40.6 µM,29.9 µM,21.9 µM,13.8 µM,24.9 µM,,,,,,,,,,
COc1ccc(/C=C2\CN(Cc3cn(CCNc4ccnc5cc(Cl)ccc45)nn3)C/C(=C\c3ccc(OC)c(OC)c3)C2=O)cc1OC,> 100 µM,38.7 µM,24.1 µM,31 µM,> 100 µM,> 100 µM,5.39 µM,26.2 µM,13.2 µM,16 µM,7.22 µM,6.87 µM,4.66 µM,14.5 µM,3.94 µM,3.59 µM,2.14 µM,3.9 µM,2.53 µM,3.3 µM
c1cncc(C2Nc3cccc4cccc(c34)N2)c1,> 100 µM,> 100 µM,> 100 µM,27.4 µM,48.6 µM,> 100 µM,> 100 µM,> 100 µM,> 100 µM,60.6 µM,48.7 µM,26.3 µM,> 100 µM,11.7 µM,20 µM,> 100 µM,38.7 µM,42.5 µM,30.9 µM,18.7 µM
CCCCNC(=O)Oc1ccc(/C(=C(/C)Cc2ccc(OC)cc2)c2ccc(OCCN3CCCC3)cc2)cc1,3.5 µM,3.13 µM,20.4 µM,3.22 µM,4.38 µM,11.4 µM,3.59 µM,11.3 µM,18.5 µM,2.51 µM,1.63 µM,1.5 µM,6.14 µM,1.65 µM,2.04 µM,3.47 µM,1.94 µM,2.65 µM,4.7 µM,0.655 µM
CCOC(=O)c1oc2ccc([N+](=O)[O-])c3c2c1CCC3,> 77.5 µM,> 100 µM,> 46.3 µM,> 100 µM,> 100 µM,> 89.6 µM,> 54.8 µM,58.9 µM,> 100 µM,> 100 µM,,,,,,,,,,
CCCCC(=O)N/N=C/c1c(O)ccc2ccccc12,2.26 µM,> 100 µM,> 100 µM,28 µM,> 100 µM,> 100 µM,14.2 µM,> 100 µM,44.4 µM,15.8 µM,,0.532 µM,3.04 µM,1.87 µM,2.78 µM,4.26 µM,2.3 µM,7.95 µM,7.71 µM,2.09 µM
CC(C)CC(Nc1c(O)ccc2ccccc12)C(=O)O (stereo unspecified),47.4 µM,> 100 µM,66.3 µM,> 100 µM,,> 100 µM,72.3 µM,> 100 µM,67.3 µM,> 100 µM,,,,,,,,,,
